# Results from patent US9765087B2, “Benzimidazole derivatives” (ENANTA PHARMACEUTICALS, INC., priority 2009, dated 2017).
# Where two headings read alike, the source gives them in different places.
# Legend:
# HCV 1b genotype replicon = experiment: HCV replicon assay (qRT-PCR or luciferase), genotype 1b; format: cell-based; conditions: Hepatitis C virus
# Method in brief: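 EC50 derived either from luciferase signal in Huh-luc/neo-ET replicon cells after 72 h compound exposure (0.2% DMSO, 37 °C) or from TaqMan qRT-PCR of replicon RNA normalized to GAPDH. MTS assay assessed cytotoxicity; combinations tested in 6-point two-fold checkerboards around each EC50.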
# HCV 1a genotype replicon = experiment: HCV replicon assay (qRT-PCR or luciferase), genotype 1a; format: cell-based; conditions: Hepatitis C virus
# Method in brief: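 Bartenschlager HCV replicon Huh cells; EC50 from HCV RNA by TaqMan qRT-PCR normalised to GAPDH, cytotoxicity by MTS. Combination studies in Huh-luc/neo-ET cells seeded at 7,000/well, compounds in 6-point two-fold dilutions, 0.2% DMSO final, 72 h at 37 °C, luciferase read-out.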
# [1] = Table 12, range class, read-out: 1b EC50 Range
# [2] = Table 12, range class, read-out: 1a EC50 Range
# [3] = Table 12, numeric values, read-out: 1b EC50
SMILES,EC50 (HCV 1b genotype replicon; [1]) [nM],EC50 (HCV 1a genotype replicon; [2]) [nM],EC50 (HCV 1b genotype replicon; [3]) [nM],"EC50 (HCV 1a genotype replicon; Table 12, numeric values, read-out: 1a EC50) [nM]"
COC(=O)N[C@H](C(=O)N1CC2(CC2)C[C@H]1c1ncc(-c2ccc(C#Cc3ccc4nc([C@@H]5C[C@@H](C6CC6)CN5C(=O)[C@@H](NC(=O)OC)C(C)C)[nH]c4c3)cc2)[nH]1)C(C)C [Example 612],< 1,< 1,–,–
COC(=O)N[C@H](C(=O)N1C[C@@H](O)C[C@H]1c1nc(-c2ccc(C#Cc3ccc4[nH]c([C@@H]5C[C@@]6(CCCO6)CN5C(=O)[C@@H](NC(=O)OC)C(C)C)nc4c3)cc2)c[nH]1)C(C)C [Example 561],–,< 1,0.024,–
COC(=O)N[C@H](C(=O)N1C[C@@H](OC)C[C@H]1c1nc(-c2ccc(C#Cc3ccc4[nH]c([C@@H]5C[C@@]6(CCCO6)CN5C(=O)[C@@H](NC(=O)OC)C(C)C)nc4c3)cc2)c[nH]1)C(C)C [Example 558],< 1,< 1,–,–
COC(=O)N[C@H](C(=O)N1CC2(CC2)C[C@H]1c1ncc(-c2ccc(C#Cc3ccc4nc([C@@H]5CC6(CC6)CN5C(=O)[C@@H](NC(=O)OC)C5CCOCC5)[nH]c4c3)cc2)[nH]1)C1CCOCC1 [Example 583],< 1,< 1,–,–
COC(=O)N[C@H](C(=O)N1CCC[C@H]1c1ncc(-c2ccc(C#Cc3ccc4nc([C@@H]5C[C@H](C6CC6)CN5C(=O)[C@@H](NC(=O)OC)C(C)C)[nH]c4c3)cc2)[nH]1)C(C)C [Example 641],–,< 1,0.007,–
COC(=O)N[C@H](C(=O)N1CC2(CC2)C[C@H]1c1ncc(-c2ccc(C#Cc3ccc4nc([C@@H]5C[C@H](C6CC6)CN5C(=O)[C@@H](NC(=O)OC)C(C)C)[nH]c4c3)cc2)[nH]1)C(C)C [Example 691],< 1,< 1,–,–
COC(=O)N[C@@H](CC#N)C(=O)N1CCC[C@H]1c1nc(-c2ccc(C#Cc3ccc4[nH]c([C@@H]5CC6(CC6)CN5C(=O)[C@@H](NC(=O)OC)C(C)C)nc4c3)cc2)c[nH]1 [Example 621],< 1,–,–,0.207
